Results published in ChEMBL document CHEMBL3745617 (J Med Chem, 2015).

Test: Antiproliferative activity against human U937 cells after 72 hrs by CelltiterGlo assay
Type: functional
Conditions: U-937, 72 h

## CN(C)CC(=O)N1CCC[C@@H](n2nc(-c3ccc(Oc4ccccc4)cc3)c3c(N)ncnc32)C1
  GI50: 9.7 µM
